From patent US12433863B2, “Pharmaceutical compositions and uses directed to lysosomal storage disorders” (INTRABIO LIMITED, priority 2016, dated 2025)

Legend:
[1] = tested on: Tay-Sachs disease patient fibroblasts; assay: Glycosphingolipid (GSL) levels by HPLC in Tay-Sachs disease patient fibroblasts; type: cell-based, human; settings: 1 mM for 6 days, p<0.05
[2] = tested on: Sandhoff disease patient fibroblasts; assay: Glycosphingolipid (GSL) levels by HPLC in Sandhoff disease patient fibroblasts; type: cell-based, human; settings: 1 mM for 6 days
[3] = tested on: patients genetically diagnosed with Tay-Sachs disease; assay: Case studies of Tay-Sachs disease patients (SARA, SCAFI, MoCA, mRDS, EQ-5D-5L); type: in vivo, human
Excerpt: For example, to evaluate overall neurological status, mDRS, a four-domain scale (ambulation, manipulation, language and swallowing), may be applied. Cerebellar function may be evaluated using SARA, an eight-item clinical rating scale (gait, stance, sitting, speech, fine motor function and taxis; range 0-40, where 0 is the best neurological status and 40 the worst), and SCAFI, comprising the 8-m-Walking-Time (8MW; performed by having patients walking twice as quickly as possible from one line to another excluding turning), 9-Hole-Peg-Test (9HPT) and the number of “PATA” repetitions over 10 s. Subjective impairment and quality of life may be evaluated using the EQ-5D-5L questionnaire and VAS. To assess ocular motor function, 3-dimensional videooculography (EyeSeeCam) may be used to measure the peak velocity of saccades, gain of smooth pursuit, peak slow phase velocity of gaze-evoked nystagmus (gaze-holding function), peak slow phase velocity of optokinetic nystagmus, and gain of horizontal vestibulo-ocular reflex. To evaluate the cognitive state, WAIS-R or WISC-IV, and MoCA, assessing different cognitive domains, including attention and concentration, executive functions, memory, language, visuoconstructional skills, conceptual thinking, calculations, and orientation with a maximum of 30 points and a cut-off score of 26, may be used. The skilled person will know how to perform these and other such tests.
In particular, the patient was not able to stand or walk, could do single steps with strong support, had distinct postural instability, ocular movement disorder, dysphagia and dysarthria, and mild cognitive function disorder.
(§1) Before treatment was commenced, examination of the patient indicated a Scale for Assessment and Rating of Ataxia (SARA) score of 15.5/40. In addition, results from the patient's Spinocerebellar Ataxia Functional Index (SCAFI) analysis were: • Mean 8-meters Walking Test (8MW): 21.6 s • MW 9-Hole Pegboard Test Dominant (9HPTD) (right): 48.3 s • MW 9-Hole Pegboard Test Non-Dominant (9HPTND): 44.9 s • MW PATA Word Test: 20 • Montreal Cognitive Assessment (MoCA): 18/30
The day following this examination, the patient was started on therapy with acetyl-leucine, at a dose of 3 g per day for the first week, followed by a dose of 5 g per day for the second week onwards.
In particular, walking was not possible without support, and the patient suffered from dysphagia and speech disorder, ocular movement disorder, and mild cognitive function disorder.
as §1, with “10.5/40.” for “15.5/40.”, “12.5” for “21.6”, “21.5” for “48.3”, “35.5” for “44.9”, “18” for “20”, “21/30” for “18/30”
The day of the examination, the patient was started on therapy with acetyl-leucine at a dose of 3 g per day for the first week, followed by a dose of 5 g per day for the second week onwards.
The patient in this case study was a person who was genetically diagnosed with Tay-Sachs disease and who had epileptic cramps (tonic-clonic, about 10 seconds, self-limiting) almost every day before falling asleep, ocular movement disorder, anarthria, distinct problems in cognitive function and concentration (neurological examination was not possible), was not able to stand or walk by themself, and was very limited in daily activities (eating, washing or dressing themself was not possible).
Before treatment was commenced, examination of the patient indicated a Scale for Assessment and Rating of Ataxia (SARA) score of 36/40, a mRDS score of 18/24, a EQ-5D-5L visual scale of 50, and a 8MWT of 18.1 (only with strong support). […]

[4] = tested on: patient genetically diagnosed with GM1 Gangliosidosis; assay: Case study of a GM1 Gangliosidosis patient (SARA, mRDS, EQ-5D-5L); type: in vivo, human; settings: after one month
Excerpt: The patient in this case study was a person who was genetically diagnosed with GM1 Gangliosidosis and who was not able to stand or walk by themself, was very limited in daily activities (eating, washing, dressing themself was not possible), and had ocular movement disorder, anarthria, and distinct problems in cognitive function and concentration (neurological examination was not possible).
Before treatment was commenced, examination of the patient indicated a Scale for Assessment and Rating of Ataxia (SARA) score of 35/40, a mRDS score of 15, and a EQ-5D-5L visual scale of 50.
The patient was started on therapy with acetyl-leucine at a dose of 1.5 g per day for the first week, followed by a dose of 3 g per day for the second week onwards.

[5] = tested on: patients with Niemann-Pick Type C (NPC); settings: one-month study, 12 NPC patients; Bremova et al. 2015; cited from earlier work

Q: With `CC(=O)NC(CC(C)C)C(=O)O` (racemic) [acetyl-DL-leucine] as the compound, how does the “GSL levels (GSL storage)” value [1] read?
A: The value was “decrease was statistically significant”.

Q: And the “GSL levels (GSL storage)” value [2]?
A: The value was “trend towards decreased GSL levels”.

Q: What about the “Overall change in symptoms” value ([3]; Patient 1) of the same compound?
A: The value was “improvement in symptoms”.

Q: What about the SARA ([3]; Patient 1, 3 g then 5 g per day, after 4 months) of the same compound?
A: The SARA was 17/40.

Q: What about the MoCA ([3]; Patient 1, after 4 months) of the same compound?
A: Its MoCA is 22/30.

Q: What about the Clinical re-examination findings ([3]; Patient 1, after four months) of the same compound?
A: The Clinical re-examination findings was “stable condition with slightly improved cognitive function but had deterioration of stance, gait and fine motor function”.

Q: And the Clinical re-examination findings ([3]; Patient 1, after one month)?
A: Its Clinical re-examination findings is “improved fine motor skills and reduced hand tremor”.

Q: And the MoCA ([3]; Patient 1, after one month)?
A: The MoCA was 21/30.

Q: What about the SARA ([3]; Patient 2, 3 g then 5 g per day, after one month) of the same compound?
A: The SARA was 5/40.

Q: What about the Clinical re-examination findings ([3]; Patient 2, after one month) of the same compound?
A: Its Clinical re-examination findings is “increased enunciation, improved postural stability, and enhanced cognitive function”.

Q: And the MoCA ([3]; Patient 2, after one month)?
A: The MoCA was 25/30.

Q: What about the SARA ([3]; Patient 3, 1.5 g then 3 g per day, after one month) of the same compound?
A: Its SARA is 33/40.

Q: What about the SARA ([4]; 1.5 g then 3 g per day) of the same compound?
A: The SARA was 35/40.

Q: And the Clinical re-examination findings [4]?
A: The Clinical re-examination findings was “stable general condition, increased gait (more fluent), and stable stance in natural position”.

Q: What about the mRDS [4] of the same compound?
A: The mRDS was 16.

Q: What about the Ataxia symptoms [5] of the same compound?
A: Its Ataxia symptoms is “symptomatic improvement of ataxia”.
